Several values for one entry are separate records, joined by “and”; a condition that tells them apart may be missing. Equal values may be shown once. Read-outs that look alike come from different tables or passages of the source.
Key:
[1] = molecular target: T1, rNaV1.4 channel (Rattus norvegicus, UniProt P15390); test: automated patch-clamp 17-pulse protocol (SDO, RFI, SSI), IonFlux Mercury, cell ensembles; type: cell-based; conditions: pulse #5, SDO section; read-out: IC50 #5 (after 65.7 ms depol.)
T1 construct: expressed in transfected cells; host or cells: HEK 293

[2] = molecular target: T1, rNaV1.4 channel; test: as above; type: cell-based; conditions: for Ki: inactivated-state affinity, calculated with equation of Bean et al. (1983)
Method: Cell culture and electrophysiology were done as described in the accompanying paper ([Lukacs et al., 2021]). The recombinant rNaV1.4 channel-expressing cell line was generated as described before ([Lukacs et al., 2018]). Transfected HEK 293 cells were maintained in Dulbecco’s Modified Eagle Medium, high glucose supplemented with 10% v/v fetal bovine serum, 100 U/ml of penicillin/streptomycin, and 0.4 mg/ml Geneticin (Life Technologies, Carlsbad, CA). For experiments, cells were dissociated from culture dishes with Accutase (Corning), shaken in serum-free medium for 60 min at room temperature, then centrifuged, and resuspended into the extracellular solution to a concentration of 5 × 10^6 cells/mL. Voltage-clamp recordings were performed on an IonFlux Mercury instrument (Fluxion Biosciences). The composition of solutions (in mM) was: Intracellular solution: 50 CsCl, 10 NaCl, 60 CsF, 20 EGTA, and 10 HEPES; pH 7.2 (adjusted with 1 M CsOH). Extracellular solution: 140 NaCl, 4 KCl, 1 MgCl2, 2 CaCl2, 5 D-Glucose, and 10 HEPES; pH 7.4 (adjusted with 1 M NaOH). The osmolality of intra-and extracellular solutions was set to ∼320 and ∼330 mOsm, respectively. Data were sampled at 20 kHz, and filtered at 10 kHz. Experiments were carried out at room temperature.
Each zone consists of 8 separate sections, which are distinct functional units, containing 12 wells: one well for the cell suspension, one well for the waste, two cell “traps” (intracellular solution-filled wells under negative pressure to establish high resistance seals and then whole-cell configuration), and eight compound wells. […] Two kinds of microfluidic plates are manufactured: In single-cell plates, each cell trap contains a single hole and therefore catches a single cell. In “ensemble plates” there are 20 holes in each cell trap, and 20 cells are recorded simultaneously. […] From the 16 cell ensembles of each zone, we chose n = 6 ensembles for analysis.
We used a complex 17-pulse voltage protocol (Figure 1A), described in detail in the accompanying paper ([Lukacs et al., 2021]), which allowed the assessment of gating kinetics and gating equilibrium in the absence and the presence of inhibitor/modulator compounds. The protocol investigated the effect of different durations of depolarizations: 2.5, 7.5, 22.5, and 67.5 ms with 2.5 ms hyperpolarizing gaps between them; this section (pulses #1 to #5) is shown by different shades of green in Figure 1, and was named “state-dependent onset” (SDO). Next, pulses #6 to #12, as well as #1 investigated the effect of different durations of hyperpolarizations (1, 2, 4, 8, 16, 32, 64, and 498 ms, separated by 5 ms depolarizations) in the section shown by different shades of blue, and named “recovery from inactivation” (RFI). Finally, pulses #12 to #17 assessed the resting-inactivated equilibrium at different membrane potentials in the section named “steady-state inactivation” (SSI). The three sections were similar to protocols we used in previous studies ([Lukacs et al., 2018]; [Földi et al., 2021]).
In addition to automatic fitting, described in the accompanying paper ([Lukacs et al., 2021]), in this study we used a different approach to process SDO, RFI, and SSI data. This analysis focused on deriving compound-specific but concentration-independent descriptors of the mechanism of action, which can lead to a more thorough understanding of the sub-processes involved in drug action, and which can later serve as a basis for constructing kinetic models for the simulation of drug-specific effects. All data analysis was done in Microsoft Excel (RRID:SCR_016137) environment, using VBA routines to accelerate repetitive data management tasks. For each of the 17 pulses peak amplitudes were measured after removing capacitive artifacts and subtracting the leak.

[3] = molecular target: sodium channel; design: method as in Lenkey et al., 2010; conditions: resting-state; ref Lenkey et al., 2010; read-out: KR; cited from earlier work
[4] = molecular target: sodium channel; design: method as in Vladimirov et al., 2000; conditions: resting-state; ref Vladimirov et al., 2000; read-out: KR; cited from earlier work
[5] = system: sodium channel; conditions: from 10 Hz to 50 Hz; ref Desaphy et al. (2014); cited from earlier work
[6] = 1st pulse-evoked current, resting-state estimate, n = 6 ensembles, read-out: IC50 #1 (estimated KR)
[7] = pulse #7, RFI section, read-out: IC50 #7 (after 1 ms hyperpol.)
[8] = pulse #17, SSI section, read-out: IC50 #17 (−70 mV)
[9] = time range within which effective inhibitor potency changes upon depolarization
[10] = time range within which effective inhibitor potency changes upon hyperpolarization

T1 sequence (P15390 whole entry): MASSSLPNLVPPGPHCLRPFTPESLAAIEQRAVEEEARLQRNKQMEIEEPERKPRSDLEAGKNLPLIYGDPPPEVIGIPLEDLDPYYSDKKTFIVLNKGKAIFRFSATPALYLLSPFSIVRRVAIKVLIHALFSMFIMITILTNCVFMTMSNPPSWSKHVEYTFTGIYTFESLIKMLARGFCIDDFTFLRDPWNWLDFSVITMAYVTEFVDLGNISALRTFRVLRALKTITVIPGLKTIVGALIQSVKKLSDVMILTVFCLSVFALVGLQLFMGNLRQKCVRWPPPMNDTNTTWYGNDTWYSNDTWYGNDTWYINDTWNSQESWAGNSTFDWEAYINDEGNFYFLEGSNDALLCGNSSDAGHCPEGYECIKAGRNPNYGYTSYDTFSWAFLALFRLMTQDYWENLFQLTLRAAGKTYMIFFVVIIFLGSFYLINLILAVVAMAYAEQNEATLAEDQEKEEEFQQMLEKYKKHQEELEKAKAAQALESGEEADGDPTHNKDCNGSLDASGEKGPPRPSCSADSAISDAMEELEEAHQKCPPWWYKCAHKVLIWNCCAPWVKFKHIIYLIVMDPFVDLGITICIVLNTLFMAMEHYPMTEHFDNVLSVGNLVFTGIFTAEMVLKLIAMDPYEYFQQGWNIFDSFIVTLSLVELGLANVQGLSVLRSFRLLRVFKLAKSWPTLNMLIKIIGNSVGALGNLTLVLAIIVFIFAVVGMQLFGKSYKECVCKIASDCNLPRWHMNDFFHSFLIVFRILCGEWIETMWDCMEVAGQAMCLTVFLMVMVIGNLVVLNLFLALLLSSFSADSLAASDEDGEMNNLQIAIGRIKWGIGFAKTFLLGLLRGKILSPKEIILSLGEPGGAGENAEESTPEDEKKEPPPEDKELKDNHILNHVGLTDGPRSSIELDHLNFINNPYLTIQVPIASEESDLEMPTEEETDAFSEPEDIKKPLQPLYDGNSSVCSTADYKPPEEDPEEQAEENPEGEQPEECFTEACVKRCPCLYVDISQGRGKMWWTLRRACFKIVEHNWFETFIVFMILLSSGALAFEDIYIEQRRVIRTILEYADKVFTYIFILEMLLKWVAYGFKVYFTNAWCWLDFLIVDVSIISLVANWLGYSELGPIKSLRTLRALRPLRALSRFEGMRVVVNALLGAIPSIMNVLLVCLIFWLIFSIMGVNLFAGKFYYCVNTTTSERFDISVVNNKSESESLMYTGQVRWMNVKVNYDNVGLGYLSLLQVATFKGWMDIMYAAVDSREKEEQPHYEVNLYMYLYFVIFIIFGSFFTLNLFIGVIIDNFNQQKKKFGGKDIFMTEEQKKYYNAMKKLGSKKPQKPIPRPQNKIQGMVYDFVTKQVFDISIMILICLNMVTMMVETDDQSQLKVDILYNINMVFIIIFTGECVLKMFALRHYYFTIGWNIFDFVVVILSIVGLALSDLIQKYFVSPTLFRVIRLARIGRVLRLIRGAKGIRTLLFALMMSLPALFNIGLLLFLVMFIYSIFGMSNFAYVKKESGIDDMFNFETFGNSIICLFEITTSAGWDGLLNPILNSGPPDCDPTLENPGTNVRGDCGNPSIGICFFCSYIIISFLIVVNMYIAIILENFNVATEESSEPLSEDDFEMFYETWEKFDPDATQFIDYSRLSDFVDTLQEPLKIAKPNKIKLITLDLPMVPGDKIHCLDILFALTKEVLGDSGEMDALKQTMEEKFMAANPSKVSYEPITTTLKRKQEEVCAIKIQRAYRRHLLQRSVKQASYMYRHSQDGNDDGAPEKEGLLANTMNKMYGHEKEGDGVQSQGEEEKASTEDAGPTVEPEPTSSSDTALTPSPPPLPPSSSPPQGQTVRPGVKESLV

Compound | IC50 [1] [µM] | IC50 [2, 6] [µM] | Ki [2] [µM] | macro-offset time constant ([2]; offset upon drug washout) [s] | IC50 [2, 7] [µM] | IC50 [2, 8] [µM] | KR/KI ratio ([2]; state-dependence) | micro-onset range [2, 9] | micro-offset range [2, 10] | KR/KI ratio [2] | macro-offset time constant [2] [s] | micro-offset range [2] [ms] | micro-onset range [2] [ms] | also measured
CCOC(=O)c1ccc(N)cc1 [Benzocaine, benzocaine] | 1300 | 2240 | 79.4 ± 3.9 | 1.42 ± 0.59 | 290 ± 22.3 | 170 ± 10.3 | 28.3 ± 3.8 | 0.1 to 2 ms | 0.1 to 4 ms |  |  |  |  | fraction of channels inhibited ([2]; 100 µM, indicated by KI calculated from SSI data): more than half; channels recovered ([2]; at 2 ms gap duration): 70–90%; time for micro-offset to be complete ([2]; offset of effect upon hyperpolarization): ≤ 4 ms; time for micro-onset to be complete ([2]; onset of effect upon depolarization): ≤ 2.5 ms; KR/KI ratio ([2]; state-dependence, listed as benzocaine): 28.3
CCCCN1CCCCC1C(=O)Nc1c(C)cccc1C (stereo not shown) [Bupivacaine, bupivacaine] | 27.3 ± 1.45 | 94.6 ± 10.7 | 12.7 ± 1.22 | 3.56 ± 0.43 | 33.5 ± 2.32 | 16.3 ± 1.7 | 7.48 ± 0.68 | 100–1,000 ms | 100–1,000 ms |  |  |  |  | Kd [3]: ~619 µM; macro-offset time constant ([2]; offset upon drug washout, listed as bupivacaine): 3.56 s; KR/KI ratio ([2]; state-dependence, listed as bupivacaine): 7.48; Kd [4]: ~317 µM
CCN(CC)CC(=O)Nc1c(C)cccc1C [Lidocaine, lidocaine] | 31.9 ± 2.28 | 1280 | 18.4 ± 1.52 |  | 71.7 ± 5.83 | 22.8 ± 2.04 |  |  |  | 69.7 and 69.7 ± 20.9 | 1.72 ± 0.05 | 10 to 500 | 1 to 100 | time for micro-onset to be complete [2]: more than 100 ms
Nc1nc2ccc(OC(F)(F)F)cc2s1 [Riluzole, riluzole] | 27.4 ± 6.44 | 1360 | 5.63 ± 3.35 | 13.6 ± 0.71 | 42.1 ± 3.62 | 6.86 ± 4.36 |  |  |  |  |  |  |  | increase of apparent affinity [5]: 48 fold; inhibition, pulses #1, #6 and #12 ([2]; 100 µM, single cell ensemble): no inhibition; inhibition, pulses #7 and #17 ([2]; 100 µM, single cell ensemble): almost full inhibition
NC1=N[C@H](O)[C@H]2[C@H]3O[C@]4(O)O[C@@H]([C@@H](O)[C@@]2(N1)[C@@H]4O)[C@]3(O)CO [Tetrodotoxin, tetrodotoxin] |  |  |  |  |  |  |  |  |  | 1.7 ± 0.11 | 22.9 ± 1.50 | 1 to 10 | 1 to 100 | extent of change of EIP during SDO, RFI and SSI sections [2]: less than 2 fold; IC50 ([2]; read-out: IC50 #1 (estimated KR)): 0.028 µM; IC50 ([2]; read-out: IC50 #5 (after 65.7 ms depol.)): 0.015 µM; IC50 ([2]; read-out: IC50 #7 (after 1 ms hyperpol.)): 0.018 µM; IC50 ([2]; read-out: IC50 #17 (−70 mV)): 0.018 µM
